Reference: patent publication US9409922B2, “Imidazopyridine macrocycles as inhibitors of human immunodeficiency virus replication” (priority 2014, dated 2016)

Test system: NL-RLuc virus
Test: Inhibition of HIV replication: NL-RLuc reporter virus in MT-2 cells, luciferase readout
Format: cell-based
Details: MT-2 cells infected with NL-RLuc virus, 5 days of incubation, 10% FBS, at least 2 experiments
Text: Inhibition of HIV Replication:
A recombinant NL-RLuc proviral clone was constructed in which a section of the nef gene from NL4-3 was replaced with the Renilla Luciferase gene. This virus is fully infectious and can undergo multiple cycles of replication in cell culture. In addition, the luciferous reporter provides a simple and easy method for quantitating the extent of virus growth and consequently, the antiviral activity of test compounds. The plasmid pNLRLuc contains the proviral NL-Rluc DNA cloned into pUC 18 at the PvuII site. The NL-RLuc virus was prepared by transfection of 293T cells with the plasmid pNLRLuc. Transfections were performed using the LipofectAMINE PLUS kit from Invitrogen (Carlsbad, Calif.) according to the manufacturer and the virus generated was titered in MT-2 cells. For susceptibility analyses, the titrated virus was used to infect MT-2 cells in the presence of compound, and after 5 days of incubation, cells were processed and quantitated for virus growth by the amount of expressed luciferase. Assay media was RPMI 1640 supplemented with 10% heat inactivated fetal bovine serum (FBS), 100 units/ml penicillin G/100 units/ml streptomycin, 10 mM HEPES buffer pH 7.55 and 2 mM L-glutamine. The results from at least 2 experiments were used to calculate the EC50 values. Luciferase was quantitated using the Dual Luciferase kit from Promega (Madison, Wis.). Susceptibility of viruses to compounds was determined by incubation in the presence of serial dilutions of the compound. The 50% effective concentration (EC50) was calculated by using the exponential form of the median effect equation where (Fa)=1/[1+(ED50/drug conc.)^m](Johnson V A, Byington R T. Infectivity Assay. In Techniques in HIV Research. ed. Aldovini A, Walker B D. 71-76. New York: Stockton Press. 1990).

[1] = Human immunodeficiency virus 1, MT2, 120 h

Structure (SMILES) | EC50 [1] | EC50
Cc1cc(F)c2c(c1)O[C@@H](C)CCCCOC1(C)CCN(CC1)c1c([C@H](OC(C)(C)C)C(=O)O)c(C)cc3nc(cn13)-c1cccc-2c1 [Example 21, (2S)-2-(tert-Butoxy)-2-[(22S)-16-fluoro-4,18,22,28-tetramethyl-21,27-dioxa-1,7,34-triazahexacyclo[26.2.2.1^6,^9.1^10,^14.0^2,^7.0^15,^20]tetratriaconta-2,4,6(34),8,10(33),11,13,15(20),16,18-decaen-3-yl]acetic acid] | 5 nM | –
Cc1ccc2c(c1)-c1cccc(c1)-c1nc3cc(C)c([C@H](OC(C)(C)C)C(=O)O)c(n3c1Cl)N1CCC(C)(CC1)OCCCC[C@H](C)O2 [Example 22, (2S)-2-(tert-Butoxy)-2-[(22S)-8-chloro-4,17,22,28-tetramethyl-21,27-dioxa-1,7,34-triazahexacyclo[26.2.2.1^6,^9.1^10,^14.0^2,^7.0^15,^20]tetratriaconta-2,4,6(34),8,10(33),11,13,15(20),16,18-decaen-3-yl]acetic acid] | 24 nM | –
Cc1cc2nc3c(Cl)n2c(c1[C@H](OC(C)(C)C)C(=O)O)N1CCC(C)(CC1)OCCCC[C@H](C)Oc1cc(F)c(F)cc1-c1cccc-3c1 [Example 23, (2S)-2-(tert-Butoxy)-2-[(22S)-8-chloro-17,18-difluoro-4,22,28-trimethyl-21,27-dioxa-1,7,34-triazahexacyclo[26.2.2.1^6,^9.1^10,^14.0^2,^7.0^15,^20]tetratriaconta-2,4,6(34),8,10(33),11,13,15(20),16,18-decaen-3-yl]acetic acid] | 19 nM | –
Cc1cc2c(cc1F)-c1cccc(c1)-c1nc3cc(C)c([C@H](OC(C)(C)C)C(=O)O)c(n3c1Cl)N1CCC(C)(CC1)OCCCC[C@H](C)O2 [Example 24, (2S)-2-(tert-Butoxy)-2-[(22S)-8-chloro-17-fluoro-4,18,22,28-tetramethyl-21,27-dioxa-1,7,34-triazahexacyclo[26.2.2.1^6,^9.1^10,^14.0^2,^7.0^15,^20]tetratriaconta-2,4,6(34),8,10(33),11,13,15(20),16,18-decaen-3-yl]acetic acid] | 20 nM | –
Cc1cc2c(cc1C)-c1cccc(c1)-c1nc3cc(C)c([C@H](OC(C)(C)C)C(=O)O)c(n3c1Cl)N1CCC(C)(CC1)OCCCC[C@H](C)O2 [Example 25, (2S)-2-(tert-Butoxy)-2-[(22S)-8-chloro-4,17,18,22,28-pentamethyl-21,27-dioxa-1,7,34-triazahexacyclo[26.2.2.1^6,^9.1^10,^14.0^2,^7.0^15,^20]tetratriaconta-2,4,6(34),8,10(33),11,13,15(20),16,18-decaen-3-yl]acetic acid] | 30 nM | –
Cc1cc2nc3c(F)n2c(c1[C@H](OC(C)(C)C)C(=O)O)N1CCC(C)(CC1)OCCCC[C@H](C)Oc1cc(F)c(F)cc1-c1cccc-3c1 [Example 26, (2S)-2-(tert-Butoxy)-2-[(22S)-8,17,18-trifluoro-4,22,28-trimethyl-21,27-dioxa-1,7,34-triazahexacyclo[26.2.2.1^6,^9.1^10,^14.0^2,^7.0^15,^20]tetratriaconta-2,4,6(34),8,10(33),11,13,15(20),16,18-decaen-3-yl]acetic acid] | 26 nM | –
Cc1cc2c(cc1F)-c1cccc(c1)-c1nc3cc(C)c([C@H](OC(C)(C)C)C(=O)O)c(n3c1Br)N1CCC(C)(CC1)OCCCC[C@H](C)O2 [Example 27, (2S)-2-[(22S)-8-Bromo-17-fluoro-4,18,22,28-tetramethyl-21,27-dioxa-1,7,34-triazahexacyclo[26.2.2.1^6,^9.1^10,^14.0^2,^7.0^15,^20]tetratriaconta-2,4,6(34),8,10(33),11,13,15(20),16,18-decaen-3-yl]-2-(tert-butoxy)acetic acid] | 13 nM | –
Cc1cc2c(cc1F)-c1cccc(c1)-c1nc3cc(C)c([C@H](OC(C)(C)C)C(=O)O)c(n3c1Br)N1CCC(C)(CC1)OCCCC[C@H](C)O2 [Example 28, (2S)-2-[(22S)-8-Bromo-17-fluoro-4,18,22,28-tetramethyl-21,27-dioxa-1,7,34-triazahexacyclo[26.2.2.1^6,^9.1^10,^14.0^2,^7.0^15,^20]tetratriaconta-2,4,6(34),8,10(33),11,13,15(20),16,18-decaen-3-yl]-2-(tert-butoxy)acetic acid] | – | 8 nM
Cc1cc2c(cc1F)-c1cccc(c1)-c1nc3c(Br)c(C)c([C@H](OC(C)(C)C)C(=O)O)c(n3c1Cl)N1CCC(C)(CC1)OCCCC[C@H](C)O2 [Example 29, (2S)-2-[(22S)-5-Bromo-8-chloro-17-fluoro-4,18,22,28-tetramethyl-21,27-dioxa-1,7,34-triazahexacyclo[26.2.2.1^6,^9.1^10,^14.0^2,^7.0^15,^20]tetratriaconta-2,4,6(34),8,10(33),11,13,15(20),16,18-decaen-3-yl]-2-(tert-butoxy)acetic acid] | 30 nM | –
Cc1cc2c(cc1F)-c1cccc(c1)-c1cn3c(c([C@H](OC(C)(C)C)C(=O)O)c(C)c(C)c3n1)N1CCC(C)(CC1)OCCCC[C@H](C)O2 [Example 30, (2S)-2-(tert-Butoxy)-2-[(22S)-17-fluoro-4,5,18,22,28-pentamethyl-21,27-dioxa-1,7,34-triazahexacyclo[26.2.2.1^6,^9.1^10,^14.0^2,^7.0^15,^20]tetratriaconta-2,4,6(34),8,10(33),11,13,15(20),16,18-decaen-3-yl]acetic acid] | 21 nM | –
Cc1cc2c(cc1F)-c1cccc(c1)-c1cn3c(c([C@H](OC(C)(C)C)C(=O)O)c(C)c(NS(C)(=O)=O)c3n1)N1CCC(C)(CC1)OCCCC[C@H](C)O2 [Example 31, (2S)-2-(tert-Butoxy)-2-[(22S)-17-fluoro-5-methanesulfonamido-4,18,22,28-tetramethyl-21,27-dioxa-1,7,34-triazahexacyclo[26.2.2.1^6,^9.1^10,^14.0^2,^7.0^15,^20]tetratriaconta-2,4,6(34),8,10(33),11,13,15(20),16,18-decaen-3-yl]acetic acid] | 19 nM | –
Cc1c([C@H](OC(C)(C)C)C(=O)O)c2n3cc(nc3c1Br)-c1cccc(c1)-c1cc(F)ccc1O[C@@H](C)CCCCOC1(C)CCN2CC1 [Example 32, (2S)-2-[(22S)-5-Bromo-17-fluoro-4,22,28-trimethyl-21,27-dioxa-1,7,34-triazahexacyclo[26.2.2.1^6,^9.1^10,^14.0^2,^7.0^15,^20]tetratriaconta-2,4,6(34),8,10(33),11,13,15(20),16,18-decaen-3-yl]-2-(tert-butoxy)acetic acid] | 10 nM | –
Cc1c([C@H](OC(C)(C)C)C(=O)O)c2n3cc(nc3c1C)-c1cccc(c1)-c1cc(F)ccc1O[C@@H](C)CCCCOC1(C)CCN2CC1 [Example 33, (2S)-2-(tert-Butoxy)-2-[(22S)-17-fluoro-4,5,22,28-tetramethyl-21,27-dioxa-1,7,34-triazahexacyclo[26.2.2.1^6,^9.1^10,^14.0^2,^7.0^15,^20]tetratriaconta-2,4,6(34),8,10(33),11,13,15(20),16,18-decaen-3-yl]acetic acid] | 25 nM | –
Cc1cc2nc3cn2c(c1[C@H](OC(C)(C)C)C(=O)O)N1CCC(C)(CC1)OC/C=C/C[C@H](C)Oc1c(F)cccc1-c1cccc-3c1 [Example 34, (2S)-2-(tert-Butoxy)-2-[(22S,24E)-19-fluoro-4,22,28-trimethyl-21,27-dioxa-1,7,34-triazahexacyclo[26.2.2.1^6,^9.1^10,^14.0^2,^7.0^15,^20]tetratriaconta-2,4,6(34),8,10(33),11,13,15(20),16,18,24-undecaen-3-yl]acetic acid] | 3 nM | –
Cc1cc2nc3cn2c(c1[C@H](OC(C)(C)C)C(=O)O)N1CCC(C)(CC1)OCCCC[C@H](C)Oc1c(F)cccc1-c1cccc-3c1 [Example 35, (2S)-2-(tert-Butoxy)-2-[(22S)-19-fluoro-4,22,28-trimethyl-21,27-dioxa-1,7,34-triazahexacyclo[26.2.2.1^6,^9.1^10,^14.0^2,^7.0^15,^20]tetratriaconta-2,4,6(34),8,10(33),11,13,15(20),16,18-decaen-3-yl]acetic acid] | 7 nM | –
Cc1c([C@H](OC(C)(C)C)C(=O)O)c2n3cc(nc3c1Br)-c1cccc(c1)-c1cccc(F)c1O[C@@H](C)CCCCOC1(C)CCN2CC1 [Example 36, (2S)-2-[(22S)-5-Bromo-19-fluoro-4,22,28-trimethyl-21,27-dioxa-1,7,34-triazahexacyclo[26.2.2.1^6,^9.1^10,^14.0^2,^7.0^15,^20]tetratriaconta-2,4,6(34),8,10(33),11,13,15(20),16,18-decaen-3-yl]-2-(tert-butoxy)acetic acid] | 10 nM | –
Cc1c([C@H](OC(C)(C)C)C(=O)O)c2n3cc(nc3c1C)-c1cccc(c1)-c1cccc(F)c1O[C@@H](C)CCCCOC1(C)CCN2CC1 [Example 37, (2S)-2-(tert-Butoxy)-2-[(22S)-19-fluoro-4,5,22,28-tetramethyl-21,27-dioxa-1,7,34-triazahexacyclo[26.2.2.1^6,^9.1^10,^14.0^2,^7.0^15,^20]tetratriaconta-2,4,6(34),8,10(33),11,13,15(20),16,18-decaen-3-yl]acetic acid] | 10 nM | –
